{"source": "patent US20140329692A1", "about": "“METHOD FOR MEASURING DNA METHYLATION PROFILES” (ALBERT EINSTEIN COLLEGE OF MEDICINE OF YESHIVA UNIVERSITY, priority 2013, published 2014)", "key": {"promoter region of Oct4": {"test_system": "promoter region of Oct4", "assay": "DNA methylation profile of the Oct4 promoter in 5-Aza-treated MEFs (bisulfite treatment, MDA amplification, nested PCR, Sanger sequencing)", "assay_type": "cell-based, mouse", "details": "1 μM 5-Aza", "excerpt": "To definitively test the protocol, it was investigated whether it was capable of directly detecting epimutations, i.e., random changes in methylation status of single cytosines as a consequence of, for example, errors in de novo or maintenance methylation. While estimates of DNA methylation accuracy have been reported (13, 14), it has never been possible to directly determine such epimutations. To test if the method was able to detect single cell-specific epimutations, a time course experiment was performed in MEFs treated with 5-azacytidine (5-Aza). 5-Aza prevents methylation at CpG sites in newly synthesized DNA through covalent binding to Dnmt1 (15). […] Cultured cells were treated with 1 μM 5-Aza for 48 and 72 hours; ten single cells as well as 100-cell controls from each treatment group were subjected to lysis and bisulfite treatment followed by MDA amplification. Then the promoter region of Oct4 was tested and it was shown that a fully methylated pattern of CpG sites was present in the untreated single fibroblasts as well as in the 100-cell control (FIG. 1B, upper panel).\nIsolation of single mouse embryonic fibroblasts: Mouse embryonic fibroblasts (MEFs) were isolated from embryonic day 13.5 embryos of C57BL/6 mice as described (31). All cultures were maintained in a 3% O2 and 5% CO2 atmosphere. The solutions of 5-aza-2′-deoxycytidine (5-Aza; Sigma, St. Louis, Mo., USA) in culturing medium were prepared at the time of application and applied every 24 hours for 72 hours. After trypsinization, single MEFs were collected under an inverted microscope by hand-held capillaries, deposited in PCR tubes and immediately frozen on dry ice and stored at […] until needed or immediately bisulfite-converted.\nBisulfite conversion: The bisulfite conversion and recovery of DNA were performed using the EZ DNA Methylation-Direct Kit (Zymo Research, Orange, Calif.). Bisulfite conversion was performed according to the instructions of the supplier with some modifications. First the bisulfite solution was added to the single or 100 cells together with 2 ng of salmon sperm DNA or tRNA. […]"}, "global methylation": {"test_system": "global methylation", "details": "5-Aza treatment; cited from earlier work"}}, "data": [{"smiles": "Nc1ncn([C@H]2C[C@H](O)[C@@H](CO)O2)c(=O)n1", "note": "[5-Aza, 5-aza-2′-deoxycytidine]", "values": [{"measurement": "demethylation of Oct4 promoter", "setting": "promoter region of Oct4; 48 hours, 100-cell sample", "value": "< 50", "unit": "%"}, {"measurement": "methylation status of Oct4 promoter CpG sites", "setting": "promoter region of Oct4; 48 hours, single fibroblasts", "value": "a mixed population was found comprising either methylated or unmethylated cytosines"}, {"measurement": "methylation status of Oct4 promoter CpG sites", "setting": "promoter region of Oct4; 72 hours, both single fibroblasts and 100-cell control sample", "value": "fully demethylated"}, {"measurement": "global methylation", "setting": "global methylation", "value": "significant decrease in global methylation"}]}]}
